Experiments:
[1] = tested on: Apc^Min mouse model of inherited colorectal cancer; conditions: dietary curcumin; cited from earlier work
[2] = cited from earlier work
[3] = Curcuminoid levels in 24 h urine collection; format: in vivo, human; conditions: 24 h urine between last two doses
[4] = Curcuminoid levels in plasma; format: in vivo, human; conditions: of 24 participants
[5] = Curcuminoid levels in colonic mucosa biopsies; format: in vivo, human; conditions: for Mucosal level, mean concentration ± SEM, unwashed, surgical biopsies / Mucosal level, mean concentration ± SEM, washed, surgical biopsies / Mucosal level, mean concentration ± SEM, unwashed, endoscopy biopsies / Mucosal level, mean concentration ± SEM, washed, endoscopy biopsies: patients, oral Curcumin C3 complex 2.35 g once daily 14 days; for Mucosal level, mean concentration ± SEM, unwashed, surgical biopsies / Mucosal level, mean concentration ± SEM, washed, surgical biopsies: n=5; for Mucosal level, mean concentration ± SEM, unwashed, endoscopy biopsies / Mucosal level, mean concentration ± SEM, washed, endoscopy biopsies: n=30
[6] = Pre- and post-trial self-reported questionnaire; format: in vivo, human; conditions: 24 participants completing the 2 week course; period of administration
Adverse event monitoring = format: in vivo, human
[7] = one participant, right hemi-colectomy, no bowel preparation of biopsied area
[8] = AEs possibly or probably attributable

Q: Which results are given for COc1cc(/C=C/C(=O)CC(=O)/C=C/c2ccc(O)c(OC)c2)ccc1O [Curcumin, curcumin]?
A: Reduction of adenoma formation [1]: 39-64%; Lipophilicity [2]: highly lipophilic; Urine level, mean [3]: 27.0 ng/mL; Urine curcumin level, range ([3]; 12 participants with quantifiable levels): 0.67 to 503.3 ng/mL; Quantifiable in plasma (number of participants) [4]: 4; Surface curcumin level, single participant [5, 7]: 551.1 µg/g; Tissue curcumin level, single participant [5, 7]: 228.3 µg/g; Mean pre-wash curcumin level, left-sided paired endoscopic biopsies ([5]; oral Curcumin C3 complex 2.35 g daily 14 days, paired left-sided, n=12 pairs): 9.0 µg/g; Mean pre-wash curcumin level, right-sided paired endoscopic biopsies ([5]; oral Curcumin C3 complex 2.35 g daily 14 days, paired right-sided, n=12 pairs): 35.4 µg/g; Decrease in tissue curcumin after consecutive washes ([5]; paired right-sided biopsy samples): 74%; Mucosal level, mean concentration ± SEM, unwashed, surgical biopsies [5]: 75.32 ± 39.71 µg/g; Mucosal level, mean concentration ± SEM, washed, surgical biopsies [5]: 12.50 ± 3.07 µg/g; Mucosal level, mean concentration ± SEM, unwashed, endoscopy biopsies [5]: 42.31 ± 23.68 µg/g; Mucosal level, mean concentration ± SEM, washed, endoscopy biopsies [5]: 19.91 ± 7.87 µg/g; Persistence of high curcumin levels in mucosa post-administration ([5]; time after last dose at which mucosa was biopsied): up to 40 h; Experienced abdominal pain, post-trial responses [6]: 21 % participants; Experienced bowel incontinence, post-trial responses [6]: 12 % participants; Experienced constipation, post-trial responses [6]: 13 % participants; Experienced diarrhoea, post-trial responses [6]: 38 % participants; Total gastrointestinal events, number of patients (Adverse event monitoring; 26 patients commenced curcumin): 6; Abdominal pain, number of events (Adverse event monitoring; [8]): 3; Bloating, number of events (Adverse event monitoring; [8]): 1; Diarrhoea, number of events (Adverse event monitoring; [8]): 3; Dyspepsia, number of events (Adverse event monitoring; [8]): 1; Flatulence, number of events (Adverse event monitoring; [8]): 1; Nausea, number of events (Adverse event monitoring; [8]): 2; Vomiting, number of events (Adverse event monitoring; [8]): 2; Total gastrointestinal events, number of events (Adverse event monitoring; AEs possibly or probably attributable, Curcumin C3 complex 2.35 g daily 14 days): 13; Serious adverse events (SAEs) attributable to curcumin (Adverse event monitoring; Curcumin C3 complex 2.35 g daily 14 days): no serious adverse events; Abdominal pain, grade (Adverse event monitoring; NCI-CTC v3.0 grade): 1,2; Bloating, grade (Adverse event monitoring; NCI-CTC v3.0 grade): 2; Diarrhoea, grade (Adverse event monitoring; NCI-CTC v3.0 grade): 1; Dyspepsia, grade (Adverse event monitoring; NCI-CTC v3.0 grade): 1; Flatulence, grade (Adverse event monitoring; NCI-CTC v3.0 grade): 1; Nausea, grade (Adverse event monitoring; NCI-CTC v3.0 grade): 1,2; Total gastrointestinal events, grade (Adverse event monitoring; NCI-CTC v3.0 grade): 1 - 2; Vomiting, grade (Adverse event monitoring; NCI-CTC v3.0 grade): 1,2; Abdominal pain, number of patients (Adverse event monitoring; in vivo): 3; Bloating, number of patients (Adverse event monitoring; in vivo): 1; Diarrhoea, number of patients (Adverse event monitoring; in vivo): 3; Dyspepsia, number of patients (Adverse event monitoring; in vivo): 1; Flatulence, number of patients (Adverse event monitoring; in vivo): 1; Nausea, number of patients (Adverse event monitoring; in vivo): 2; Vomiting, number of patients (Adverse event monitoring; in vivo): 2

Q: For COc1cc(/C=C/C(=O)CC(=O)/C=C/c2ccc(O)cc2)ccc1O [Desmethoxycurcumin, desmethoxycurcumin], which “Detectable in mucosal samples (number of biopsies)” value ([5]; of 35 mucosal samples, oral Curcumin C3 complex 2.35 g daily 14 days) is on record?
A: 27 out of 35

Q: And the “Mucosal level, mean concentration ± SEM, unwashed, surgical biopsies” value [5]?
A: 10.42 ± 6.52 µg/g

Q: What about the “Mucosal level, mean concentration ± SEM, washed, surgical biopsies” value [5] of the same molecule?
A: 1.27 ± 0.42 µg/g

Q: What about the “Mucosal level, mean concentration ± SEM, unwashed, endoscopy biopsies” value [5] of the same molecule?
A: 6.33 ± 3.75 µg/g

Q: What about the “Mucosal level, mean concentration ± SEM, washed, endoscopy biopsies” value [5] of the same molecule?
A: 4.03 ± 1.69 µg/g
